Experiments:
mice [1] = assay: Motor activity in mice (activity meters with photoelectric cells); assay type: in vivo
Description: The motor activity was determined with the aid of activity meters having photoelectric cells (Boissier and Simon, Arch. int. Pharmacodyn. 1965, 158, 212-221). A minimum of 10 animals was always used per batch.
The mice are placed in the activity meter just after the oral or intraperitoneal administration of the product acccording to the invention, obtained in accordance with Example I. The motor activity is measured as from the introduction into the activity meter up to the 60th minute. The counters are read after 30 minutes, then reset to 0 and read every 10 minutes for 30 minutes.

mice [2] = assay: Anti-apomorphine activity in mice (hypothermia caused by apomorphine); assay type: in vivo

Q: Which results are given for `CC1CC(c2ccc(Cl)cc2)C(c2ccccc2)C(=O)O1` (stereo not drawn) [Example I, trans-4-(4'-chlorophenyl)-6-methyl-3-phenyl-3,4,5,6-tetrahydropyrone-2]?
A: Number of rays passed through by mice (mice [1]; Table Ia, 1 mg/kg intraperitoneal, 30 + 10 min): 76; Number of rays passed through by mice (mice [1]; Table Ia, 1 mg/kg intraperitoneal, 30 + 20 min): 163; Number of rays passed through by mice (mice [1]; Table Ia, 1 mg/kg intraperitoneal, 30 + 30 min): 235; Number of rays passed through by mice (mice [1]; Table Ia, 1 mg/kg intraperitoneal, 30 min): 400; Number of rays passed through by mice (mice [1]; Table Ia, 2 mg/kg intraperitoneal, 30 + 10 min): 114; Number of rays passed through by mice (mice [1]; Table Ia, 2 mg/kg intraperitoneal, 30 + 20 min): 231; Number of rays passed through by mice (mice [1]; Table Ia, 2 mg/kg intraperitoneal, 30 + 30 min): 331; Number of rays passed through by mice (mice [1]; Table Ia, 2 mg/kg intraperitoneal, 30 min): 474; Number of rays passed through by mice (mice [1]; Table Ia, 4 mg/kg intraperitoneal, 30 + 10 min): 129; Number of rays passed through by mice (mice [1]; Table Ia, 4 mg/kg intraperitoneal, 30 + 20 min): 269; Number of rays passed through by mice (mice [1]; Table Ia, 4 mg/kg intraperitoneal, 30 + 30 min): 322; Number of rays passed through by mice (mice [1]; Table Ia, 4 mg/kg intraperitoneal, 30 min): 529; Number of rays passed through by mice (mice [1]; Table Ia, 4 mg/kg oral, 30 + 10 min): 139; Number of rays passed through by mice (mice [1]; Table Ia, 4 mg/kg oral, 30 + 20 min): 257; Number of rays passed through by mice (mice [1]; Table Ia, 4 mg/kg oral, 30 + 30 min): 386; Number of rays passed through by mice (mice [1]; Table Ia, 4 mg/kg oral, 30 min): 462; Number of rays passed through by mice (mice [1]; Table Ia, 8 mg/kg intraperitoneal, 30 + 10 min): 147; Number of rays passed through by mice (mice [1]; Table Ia, 8 mg/kg intraperitoneal, 30 + 20 min): 309; Number of rays passed through by mice (mice [1]; Table Ia, 8 mg/kg intraperitoneal, 30 + 30 min): 467; Number of rays passed through by mice (mice [1]; Table Ia, 8 mg/kg intraperitoneal, 30 min): 659; Number of rays passed through by mice (mice [1]; Table Ia, 8 mg/kg oral, 30 + 10 min): 157; Number of rays passed through by mice (mice [1]; Table Ia, 8 mg/kg oral, 30 + 20 min): 314; Number of rays passed through by mice (mice [1]; Table Ia, 8 mg/kg oral, 30 + 30 min): 461; Number of rays passed through by mice (mice [1]; Table Ia, 8 mg/kg oral, 30 min): 478; Number of rays passed through by mice (mice [1]; Table Ia, 16 mg/kg intraperitoneal, 30 + 10 min): 176; Number of rays passed through by mice (mice [1]; Table Ia, 16 mg/kg intraperitoneal, 30 + 20 min): 336; Number of rays passed through by mice (mice [1]; Table Ia, 16 mg/kg intraperitoneal, 30 + 30 min): 465; Number of rays passed through by mice (mice [1]; Table Ia, 16 mg/kg intraperitoneal, 30 min): 763; Number of rays passed through by mice (mice [1]; Table Ia, 16 mg/kg oral, 30 + 10 min): 232; Number of rays passed through by mice (mice [1]; Table Ia, 16 mg/kg oral, 30 + 20 min): 428; Number of rays passed through by mice (mice [1]; Table Ia, 16 mg/kg oral, 30 + 30 min): 636; Number of rays passed through by mice (mice [1]; Table Ia, 16 mg/kg oral, 30 min): 629; Number of rays passed through by mice (mice [1]; Table Ia, 32 mg/kg intraperitoneal, 30 + 10 min): 187; Number of rays passed through by mice (mice [1]; Table Ia, 32 mg/kg intraperitoneal, 30 + 20 min): 422; Number of rays passed through by mice (mice [1]; Table Ia, 32 mg/kg intraperitoneal, 30 + 30 min): 594; Number of rays passed through by mice (mice [1]; Table Ia, 32 mg/kg intraperitoneal, 30 min): 891; Number of rays passed through by mice (mice [1]; Table Ia, 32 mg/kg oral, 30 + 10 min): 270; Number of rays passed through by mice (mice [1]; Table Ia, 32 mg/kg oral, 30 + 20 min): 587; Number of rays passed through by mice (mice [1]; Table Ia, 32 mg/kg oral, 30 + 30 min): 869; Number of rays passed through by mice (mice [1]; Table Ia, 32 mg/kg oral, 30 min): 783; Number of rays passed through by mice (mice [1]; Table Ib, 2 mg/kg, route not given, 0 + 10 min): 119; Number of rays passed through by mice (mice [1]; Table Ib, 2 mg/kg, route not given, 30 + 20 min): 221; Number of rays passed through by mice (mice [1]; Table Ib, 2 mg/kg, route not given, 30 + 30 min): 334; Number of rays passed through by mice (mice [1]; Table Ib, 2 mg/kg, route not given, 30 min): 417; Number of rays passed through by mice (mice [1]; Table Ib, 4 mg/kg, route not given, 0 + 10 min): 129; Number of rays passed through by mice (mice [1]; Table Ib, 4 mg/kg, route not given, 30 + 20 min): 259; Number of rays passed through by mice (mice [1]; Table Ib, 4 mg/kg, route not given, 30 + 30 min): 376; Number of rays passed through by mice (mice [1]; Table Ib, 4 mg/kg, route not given, 30 min): 472; Number of rays passed through by mice (mice [1]; Table Ib, 8 mg/kg, route not given, 0 + 10 min): 141; Number of rays passed through by mice (mice [1]; Table Ib, 8 mg/kg, route not given, 30 + 20 min): 286; Number of rays passed through by mice (mice [1]; Table Ib, 8 mg/kg, route not given, 30 + 30 min): 443; Number of rays passed through by mice (mice [1]; Table Ib, 8 mg/kg, route not given, 30 min): 452; Number of rays passed through by mice (mice [1]; Table Ib, 16 mg/kg, route not given, 0 + 10 min): 172; Number of rays passed through by mice (mice [1]; Table Ib, 16 mg/kg, route not given, 30 + 20 min): 359; Number of rays passed through by mice (mice [1]; Table Ib, 16 mg/kg, route not given, 30 + 30 min): 537; Number of rays passed through by mice (mice [1]; Table Ib, 16 mg/kg, route not given, 30 min): 565; Number of rays passed through by mice (mice [1]; Table Ib, 32 mg/kg, route not given, 0 + 10 min): 184; Number of rays passed through by mice (mice [1]; Table Ib, 32 mg/kg, route not given, 30 + 20 min): 376; Number of rays passed through by mice (mice [1]; Table Ib, 32 mg/kg, route not given, 30 + 30 min): 547; Number of rays passed through by mice (mice [1]; Table Ib, 32 mg/kg, route not given, 30 min): 560; Rectal temperatures, results in % inhibition of the hypothermia (mice [2]; 0.5 mg/kg intraperitoneal, apomorphine 1 mg.kg^-1 subcutaneously): 7%; Rectal temperatures, results in % inhibition of the hypothermia (mice [2]; 0.5 mg/kg intraperitoneal, apomorphine 16 mg.kg^-1 subcutaneously): -5%; Rectal temperatures, results in % inhibition of the hypothermia (mice [2]; 2 mg/kg intraperitoneal, apomorphine 1 mg.kg^-1 subcutaneously): 3%; Rectal temperatures, results in % inhibition of the hypothermia (mice [2]; 2 mg/kg intraperitoneal, apomorphine 16 mg.kg^-1 subcutaneously): 45%; Rectal temperatures, results in % inhibition of the hypothermia (mice [2]; 4 mg/kg intraperitoneal, apomorphine 1 mg.kg^-1 subcutaneously): -13%; Rectal temperatures, results in % inhibition of the hypothermia (mice [2]; 4 mg/kg intraperitoneal, apomorphine 16 mg.kg^-1 subcutaneously): 39%; Rectal temperatures, results in % inhibition of the hypothermia (mice [2]; 4 mg/kg oral, apomorphine 1 mg.kg^-1 subcutaneously): 0%; Rectal temperatures, results in % inhibition of the hypothermia (mice [2]; 4 mg/kg oral, apomorphine 16 mg.kg^-1 subcutaneously): 31%; Rectal temperatures, results in % inhibition of the hypothermia (mice [2]; 8 mg/kg oral, apomorphine 1 mg.kg^-1 subcutaneously): -2%; Rectal temperatures, results in % inhibition of the hypothermia (mice [2]; 8 mg/kg oral, apomorphine 16 mg.kg^-1 subcutaneously): 40%; Rectal temperatures, results in % inhibition of the hypothermia (mice [2]; 16 mg/kg intraperitoneal, apomorphine 1 mg.kg^-1 subcutaneously): 10%
